How the values were obtained:
Assay in all cases: relative viability (nuclei count vs DMSO), 5 days (fraction); higher = more cells survive
VE-821 + Alpelisib = compound: CS(=O)(=O)c1ccc(-c2cnc(N)c(C(=O)Nc3ccccc3)n2)cc1 [VE-821] + Cc1nc(NC(=O)N2CCC[C@H]2C(N)=O)sc1-c1ccnc(C(C)(C)C(F)(F)F)c1 [Alpelisib] (partner 2 µM)
Procedure, shortened: (§1)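 After 5 days of treatment, lung cancer cells in 1536-well plates were fixed and stained in a single step (final 0.05% Triton X-100, 1% formaldehyde, 1 ug/ml Hoechst) and their nuclei counted on 4× images. Treatment had been applied by pin tool the day after seeding as one drug alone or as a fixed anchor-drug dose with five library-drug doses (not always all listed) in √10 steps. Relative viability is the nuclei count of treated wells divided by that of vehicle wells, and values are medians of duplicate plates.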

Vismodegib + Tozasertib = compound: CS(=O)(=O)c1ccc(C(=O)Nc2ccc(Cl)c(-c3ccccn3)c2)c(Cl)c1 [Vismodegib] + Cc1cc(Nc2cc(N3CCN(C)CC3)nc(Sc3ccc(NC(=O)C4CC4)cc3)n2)n[nH]1 [Tozasertib] (partner 0.1 µM)
Procedure, shortened: as §1

Ruxolitinib + Navitoclax = compound: N#CC[C@H](C1CCCC1)n1cc(-c2ncnc3[nH]ccc23)cn1 [Ruxolitinib] + CC1(C)CCC(c2ccc(Cl)cc2)=C(CN2CCN(c3ccc(C(=O)NS(=O)(=O)c4ccc(N[C@H](CCN5CCOCC5)CSc5ccccc5)c(S(=O)(=O)C(F)(F)F)c4)cc3)CC2)C1 [Navitoclax] (partner 0.5 µM)
Procedure, shortened: as §1

Ruxolitinib + AZD7762 = compound: N#CC[C@H](C1CCCC1)n1cc(-c2ncnc3[nH]ccc23)cn1 [Ruxolitinib] + NC(=O)Nc1cc(-c2cccc(F)c2)sc1C(=O)N[C@H]1CCCNC1 [AZD7762] (partner 0.2 µM)
Procedure, shortened: as §1

Cell Line	relative viability (VE-821 + Alpelisib; first compound 0.08 µM)	relative viability (VE-821 + Alpelisib; first compound 0.8 µM)	relative viability (VE-821 + Alpelisib; first compound 2.53 µM)	relative viability (VE-821 + Alpelisib; first compound 8 µM)	relative viability (Vismodegib + Tozasertib; first compound 0.08 µM)	relative viability (Vismodegib + Tozasertib; first compound 0.253 µM)	relative viability (Vismodegib + Tozasertib; first compound 0.8 µM)	relative viability (Vismodegib + Tozasertib; first compound 2.53 µM)	relative viability (Vismodegib + Tozasertib; first compound 8 µM)	relative viability (Ruxolitinib + Navitoclax; first compound 0.08 µM)	relative viability (Ruxolitinib + Navitoclax; first compound 0.253 µM)	relative viability (Ruxolitinib + Navitoclax; first compound 0.8 µM)	relative viability (Ruxolitinib + Navitoclax; first compound 2.53 µM)	relative viability (Ruxolitinib + Navitoclax; first compound 8 µM)	relative viability (Ruxolitinib + AZD7762; first compound 0.08 µM)	relative viability (Ruxolitinib + AZD7762; first compound 0.253 µM)	relative viability (Ruxolitinib + AZD7762; first compound 0.8 µM)	relative viability (Ruxolitinib + AZD7762; first compound 2.53 µM)	relative viability (Ruxolitinib + AZD7762; first compound 8 µM)	relative viability (VE-821 + Alpelisib; first compound 0.253 µM)
NCI-H322M	0.728	0.763	0.881	0.612	0.483	0.485	0.503	0.473	0.443	1.36	1.26	1.27	1.53	1.44	0.524	0.508	0.517	0.685	0.776	
HCC-366	0.654	0.123	0.213	0.0456	0.11	0.106	0.0997	0.0832	0.0622	1.14	1.05	1.05	0.965	0.993	0.286	0.253	0.262	0.166	0.246	0.419
HCC-78	0.448	0.217	0.394	0.229	0.352	0.454	0.502	0.304	0.41	0.663	0.528	0.692	0.604	0.702	0.695	0.484	0.481	0.631	0.628	0.289
CAL-12T	1.22	1.37	1.32	0.837	0.301	0.28	0.321	0.35	0.328	1.1	1.23	1.14	1.15	1.07	0.623	0.688	0.694	0.732	0.608	1.08
EKVX	0.977	0.535	0.8	0.61	0.392	0.358	0.409	0.414	0.373	1	0.872	0.881	0.821	0.912		0.77	0.848	0.799	0.698	0.842
HARA	1.05	0.688	0.926	0.704	0.124	0.126	0.112	0.097	0.0937	1.14	1.11	1.17	1.14	1.25	0.344	0.365	0.377	0.0804	0.304	0.912
LXF-289	1.14	1.02	1.2	1.18	0.22	0.185	0.2	0.224	0.213	0.914	0.956	0.891	0.92	0.778	1.06	1.15	1.11	1.04	1	1.06
NCI-H1793	0.689	0.497	0.727	0.687		0.336	0.393	0.269	0.279	0.494	0.374	0.486	0.621	0.266	0.759	0.502	0.595	0.437	0.391	0.681

From the supplement of paper PMC10307832
